Eleven compounds from US11472842B2 (Protagonist Therapeutics, Inc., priority 2015, dated 2022) can be followed below.

One experiment has as its target T1, human ferroportin (Homo sapiens, UniProt Q9NP59).
T1 construct: expressed in transfected cells
T1 sequence (Q9NP59 1-571): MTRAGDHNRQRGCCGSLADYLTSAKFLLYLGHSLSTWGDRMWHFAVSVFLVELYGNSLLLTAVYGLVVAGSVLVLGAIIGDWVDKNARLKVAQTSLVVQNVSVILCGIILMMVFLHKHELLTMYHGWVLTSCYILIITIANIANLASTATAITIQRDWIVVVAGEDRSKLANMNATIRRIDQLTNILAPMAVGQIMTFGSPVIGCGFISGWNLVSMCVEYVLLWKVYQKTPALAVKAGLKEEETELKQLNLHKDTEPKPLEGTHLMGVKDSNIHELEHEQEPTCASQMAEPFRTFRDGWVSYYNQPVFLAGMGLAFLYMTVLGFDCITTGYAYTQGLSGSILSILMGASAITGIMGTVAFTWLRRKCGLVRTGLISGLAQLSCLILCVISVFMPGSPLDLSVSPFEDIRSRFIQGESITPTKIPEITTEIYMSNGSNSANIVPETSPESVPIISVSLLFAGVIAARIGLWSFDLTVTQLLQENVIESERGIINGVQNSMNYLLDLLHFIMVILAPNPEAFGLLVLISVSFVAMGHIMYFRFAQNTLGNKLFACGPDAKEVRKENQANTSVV
Description: Ferroportin internalization / degradation, HEK-GFP cell based assay (HEK293 cells stably expressing ferroportin-GFP, decrease in GFP fluorescence). The following applies: Table 3 monomer analogues; ferroportin-GFP HEK293 cells, 18-24 h incubation; read-out: HEK-GFP cell based assay (potency EC50). As for the experimental part: Peptide analogues were tested in vitro for induction of internalization of the human ferroportin protein. Following internalization, the […] are degraded. The assay measures a decrease in fluorescence of the receptor.
The cDNA encoding the human ferroportin (SLC40A1) was cloned from a cDNA clone from Origene (NM_014585). The DNA encoding the ferroportin was amplified by PCR using primers also encoding terminal restriction sites for subcloning, but without the termination codon. The ferroportin receptor was subcloned into a mammalian GFP expression vector containing a neomycin (G418) resistance marker in such that the reading frame of the ferroportin was fused in frame with the GFP protein. The fidelity of the DNA encoding the protein was confirmed by DNA sequencing. HEK293 cells were used for transfection of the ferroportin-GFP receptor expression plasmid. The cells were grown according to standard protocol in growth medium and transfected with the plasmids using Lipofectamine (manufacturer's protocol, Invitrogen). […] The cells were propagated and frozen in aliquots.
Compound was added to desired final concentration for at least 18 hours in the incubator. […] Compound was added to desired final concentration for at least 18 hours but no more than 24 hours in the incubator.
The EC50 of these reference compounds for ferroportin degradation was determined according to the activity assay described above. These peptides served as control standards.
These values were determined as described herein.
As for `CCCCCCCCCCCCCCCC(=O)NCCCCCC(=O)N[C@@H](CCC(=O)NCCCC[C@@H]1NC(=O)[C@H]([C@@H](C)CC)NC(=O)[C@@H](NC(=O)[C@@H]2CCCN2C(=O)[C@H](Cc2ccccc2)NC(=O)[C@H](Cc2c[nH]cn2)NC(=O)[C@@H](NC(=O)[C@H](CC(=O)O)NC(=O)CC(C)C)[C@@H](C)O)CSSC[C@@H](C(=O)N[C@@H](CCCCN)C(N)=O)NC(=O)CN(C)C(=O)[C@H](CCCCN)NC(=O)[C@H](CO)NC(=O)[C@H](CCCNC(=N)N)NC(=O)[C@@H]2CCCN2C(=O)[C@H](CCC(=O)O)NC(=O)[C@H](Cc2ccccc2)NC1=O)C(=O)O` [Compound 28, Isovaleric acid-DTHFPCI-[Lys(isoGlu-Ahx-Palm)]-FEPRSK-[Sar]-CK-NH2], the DC50 was determined as 23 nM.
Take `CC[C@H](C)[C@@H]1NC(=O)[C@@H](NC(=O)[C@@H]2CCCN2C(=O)[C@H](Cc2ccccc2)NC(=O)[C@H](Cc2c[nH]cn2)NC(=O)[C@@H](NC(=O)[C@H](CC(=O)O)NC(=O)CC(C)C)[C@@H](C)O)CSSC[C@@H](C(=O)N[C@@H](CCCCN)C(N)=O)NC(=O)CNC(=O)[C@H](CCCCN)NC(=O)[C@H](CO)NC(=O)[C@H](CCCNC(=N)N)NC(=O)[C@@H]2CCCN2C(=O)[C@H](CCCCNC(=O)CC[C@H](NC(=O)CCCC[C@@H]2SC[C@@H]3NC(=O)N[C@@H]32)C(=O)O)NC(=O)[C@H](Cc2ccccc2)NC(=O)[C@H](CCCCN)NC1=O` [Compound 14]: the DC50 is 29 nM.
On to `CCCCCCCCCCCCCCCC(=O)N[C@@H](CCC(=O)NCCCC[C@@H]1NC(=O)[C@H](Cc2ccccc2)NC(=O)[C@H](CCCCN)NC(=O)[C@H]([C@@H](C)CC)NC(=O)[C@@H](NC(=O)[C@@H]2CCCN2C(=O)[C@@H](NC(=O)[C@H](Cc2c[nH]cn2)NC(=O)[C@@H](NC(=O)[C@H](CC(=O)O)NC(=O)CC(C)C)[C@@H](C)O)C(c2ccccc2)c2ccccc2)CSSC[C@@H](C(=O)N[C@@H](CCCCN)C(N)=O)NC(=O)CNC(=O)[C@H](CCCCN)NC(=O)[C@H](CO)NC(=O)[C@H](CCCNC(=N)N)NC(=O)[C@@H]2CCCN2C1=O)C(=O)O` [Compound 7, Isovaleric acid-DTH-[Dpa]-PCIKF-[Lys(IsoGlu-Palm)]-PRSKGCK-NH2], for which the DC50 came out at 12 nM.
As to `CCCCCCCCCCCCCCCC(=O)NCCCC[C@@H]1NC(=O)[C@H](Cc2ccccc2)NC(=O)[C@H](CCCCN)NC(=O)[C@H]([C@@H](C)CC)NC(=O)[C@@H](NC(=O)[C@@H]2CCCN2C(=O)[C@H](Cc2ccccc2)NC(=O)[C@H](Cc2c[nH]cn2)NC(=O)[C@@H](NC(=O)[C@H](CC(=O)O)NC(=O)CC(C)C)[C@@H](C)O)CSSC[C@@H](C(=O)N[C@@H](CCCCN)C(N)=O)NC(=O)CNC(=O)[C@H](CCCCN)NC(=O)[C@H](CO)NC(=O)[C@H](CCCNC(=N)N)NC(=O)[C@@H]2CCCN2C1=O` [Compound 20], the DC50 turned out to be 19 nM.
For the compound `CCCCCCCCCCCCCCCC(=O)N[C@@H](CCC(=O)NCCCC[C@@H]1NC(=O)[C@H](Cc2ccccc2)NC(=O)[C@H](CCCCN)NC(=O)[C@H]([C@@H](C)CC)NC(=O)[C@@H](NC(=O)[C@@H]2CCCN2C(=O)[C@H](Cc2ccccc2)NC(=O)[C@H](Cc2c[nH]cn2)NC(=O)[C@@H](NC(=O)[C@H](CC(=O)O)NC(=O)CC(C)C)[C@@H](C)O)C(C)(C)SSC(C)(C)[C@@H](C(=O)N[C@@H](CCCCN)C(N)=O)NC(=O)CNC(=O)[C@H](CCCCN)NC(=O)[C@H](CO)NC(=O)[C@H](CCCNC(=N)N)NC(=O)[C@@H]2CCCN2C1=O)C(=O)O` [Compound 3, Isovaleric acid-DTHFP-[Pen]-IKF-[Lys(IsoGlu-Palm)]-PRSKG-[Pen]-K-NH2], the DC50 is 418 nM.
As for `CCCCCCCCCCCCCCCC(=O)NCCCCCC(=O)NCCCC[C@@H]1NC(=O)[C@H]([C@@H](C)CC)NC(=O)[C@@H](NC(=O)[C@@H]2CCCN2C(=O)[C@H](Cc2ccccc2)NC(=O)[C@H](Cc2c[nH]cn2)NC(=O)[C@@H](NC(=O)[C@H](CC(=O)O)NC(=O)CC(C)C)[C@@H](C)O)CSSC[C@@H](C(=O)N[C@@H](CCCCN)C(N)=O)NC(=O)CN(C)C(=O)[C@H](CCCCN)NC(=O)[C@H](CO)NC(=O)[C@H](CCCNC(=N)N)NC(=O)[C@@H]2CCCN2C(=O)[C@H](CCC(=O)O)NC(=O)[C@H](Cc2ccccc2)NC1=O` [Compound 23, Isovaleric acid-DTHFPCI-[Lys(Ahx-Palm)]-FEPRSK-[Sar]-CK-NH2], the DC50 was 6 nM.
`CCCCCCCCCCCC(=O)N[C@@H](CCC(=O)NCCCC[C@@H]1NC(=O)[C@H](Cc2ccccc2)NC(=O)[C@H](CCCCN)NC(=O)[C@H]([C@@H](C)CC)NC(=O)[C@@H](NC(=O)[C@@H]2CCCN2C(=O)[C@H](Cc2ccccc2)NC(=O)[C@H](Cc2c[nH]cn2)NC(=O)[C@@H](NC(=O)[C@H](CC(=O)O)NC(=O)CC(C)C)[C@@H](C)O)CSSC[C@@H](C(=O)N[C@@H](CCCCN)C(N)=O)NC(=O)CNC(=O)[C@H](CCCCN)NC(=O)[C@H](CO)NC(=O)[C@H](CCCNC(=N)N)NC(=O)[C@@H]2CCCN2C1=O)C(=O)O` [Compound 12]: the DC50 amounted to 14 nM.
For `CCCCCCCCCCCCCC(=O)N[C@@H](CCC(=O)NCCCC[C@@H]1NC(=O)[C@H](Cc2ccccc2)NC(=O)[C@H](CCCCN)NC(=O)[C@H]([C@@H](C)CC)NC(=O)[C@@H](NC(=O)[C@@H]2CCCN2C(=O)[C@H](Cc2ccccc2)NC(=O)[C@H](Cc2c[nH]cn2)NC(=O)[C@@H](NC(=O)[C@H](CC(=O)O)NC(=O)CC(C)C)[C@@H](C)O)CSSC[C@@H](C(=O)N[C@@H](CCCCN)C(N)=O)NC(=O)CNC(=O)[C@H](CCCCN)NC(=O)[C@H](CO)NC(=O)[C@H](CCCNC(=N)N)NC(=O)[C@@H]2CCCN2C1=O)C(=O)O` [Compound 13], the DC50 stood at 10 nM.
As to `CCCCCCCCCCCCCCCC(=O)N[C@@H](CCC(=O)NCCCC[C@@H]1NC(=O)[C@H](Cc2ccccc2)NC(=O)[C@H](CCCCN)NC(=O)[C@H]([C@@H](C)CC)NC(=O)[C@@H](NC(=O)[C@@H]2CCCN2C(=O)[C@@H](NC(=O)[C@H](Cc2c[nH]cn2)NC(=O)[C@@H](NC(=O)[C@H](CC(=O)O)NC(=O)CC(C)C)[C@@H](C)O)C(c2ccccc2)c2ccccc2)CSSC[C@@H](C(=O)N[C@@H](CCCCN)C(N)=O)NC(=O)CN(C)C(=O)[C@H](CCCCN)NC(=O)[C@H](CO)NC(=O)[C@H](CCCNC(=N)N)NC(=O)[C@@H]2CCCN2C1=O)C(=O)O` [Compound 8, Isovaleric acid-DTH-[Dpa]-PCIKF-[Lys(IsoGlu-Palm)]-PRSK-[Sar]-CK-NH2], the DC50 is 15 nM.
As to `CCCCCCCCCCCCCCCC(=O)N[C@@H](CCC(=O)NCCCC[C@@H]1NC(=O)[C@H](Cc2ccccc2)NC(=O)[C@H](CCCCN)NC(=O)[C@H]([C@@H](C)CC)NC(=O)[C@@H](NC(=O)[C@@H]2CCCN2C(=O)[C@H](Cc2ccccc2)NC(=O)[C@H](Cc2c[nH]cn2)NC(=O)[C@@H](NC(=O)[C@H](CC(=O)O)NC(=O)CC(C)C)[C@@H](C)O)CSSC[C@@H](C(N)=O)NC(=O)CN(C)C(=O)[C@H](CCCCN)NC(=O)[C@H](CO)NC(=O)[C@H](CCCNC(=N)N)NC(=O)[C@@H]2CCCN2C1=O)C(=O)O` [Compound 10], the DC50 came to 10 nM.

The experiment is the same for the next values; noted with them: Table 9 reference compounds; read-out: Potency EC50.
For the compound `CC[C@@H](C)[C@@H](NC(=O)[C@H](N)Cc1ccccc1)C(=O)N[C@H](CS)C(=O)N[C@@H](C(=O)N1CCC[C@@H]1C(=O)N[C@H](Cc1ccccc1)C(=O)N[C@H](Cc1c[nH]cn1)C(=O)N[C@@H](C(=O)N[C@H](CC(=O)O)C(N)=O)[C@H](C)O)[C@H](C)CC` [RI-Mini Hepcidin, Hy-DPhe-DIle-DCys-DIle-DPro-DPhe-DHis-DThr-DAsp-NH2, reference compound], the DC50 is more than 10000 nM.
